In patent US20230263825A1, “ANTI-CANCER ACTIVITY OF PERBORATE SALTS” (priority 2020, published 2023):
Entries after “also recorded” stand apart in the source; their conditions may differ.

Test: Toxicology in rats, oral, histopathology
Type: in vivo
Description: After 32 days, the rats were sacrificed and their organs were examined under a microscope.

O.O.O.O.[Na+].[O-]B1OO1 [sodium perborate tetrahydrate]
KIDNEY Edema, No Exam (rat, in vivo, po, 4 mg/kg): 0/10 | KIDNEY Notable or abnormal, % (rat, in vivo, po, 4 mg/kg): 0% | KIDNEY Notable or abnormal, No Exam (rat, in vivo, po, 4 mg/kg): 0/10 | KIDNEY Within normal limits, % (rat, in vivo, po, 4 mg/kg): 100% | KIDNEY Within normal limits, No Exam (rat, in vivo, po, 4 mg/kg): 10/10 | LIVER Fattening, % (rat, in vivo, po, 4 mg/kg): 0% | LIVER Fattening, No Exam (rat, in vivo, po, 4 mg/kg): 0/10 | LIVER Infiltration, % (rat, in vivo, po, 4 mg/kg): 0% | LIVER Infiltration, No Exam (rat, in vivo, po, 4 mg/kg): 0/10 | LIVER Notable or abnormal, % (rat, in vivo, po, 4 mg/kg): 0% | LIVER Notable or abnormal, No Exam (rat, in vivo, po, 4 mg/kg): 0/10 | LIVER Within normal limits, % (rat, in vivo, po, 4 mg/kg): 100% | LIVER Within normal limits, No Exam (rat, in vivo, po, 4 mg/kg): 10/10 | LUNG Lymphocytic infiltration, % (rat, in vivo, po, 4 mg/kg): 0% | LUNG Lymphocytic infiltration, No Exam (rat, in vivo, po, 4 mg/kg): 0/10 | LUNG Notable or abnormal, % (rat, in vivo, po, 4 mg/kg): 0% | LUNG Notable or abnormal, No Exam (rat, in vivo, po, 4 mg/kg): 0/10 | LUNG Pulmonary edema, % (rat, in vivo, po, 4 mg/kg): 0% | LUNG Pulmonary edema, No Exam (rat, in vivo, po, 4 mg/kg): 0/10 | LUNG Within normal limits, % (rat, in vivo, po, 4 mg/kg): 100% | LUNG Within normal limits, No Exam (rat, in vivo, po, 4 mg/kg): 10/10 | PANCREAS Notable or abnormal, % (rat, in vivo, po, 4 mg/kg): 0% | PANCREAS Notable or abnormal, No Exam (rat, in vivo, po, 4 mg/kg): 0/10 | PANCREAS Within normal limits, % (rat, in vivo, po, 4 mg/kg): 100% | PANCREAS Within normal limits, No Exam (rat, in vivo, po, 4 mg/kg): 10/10 | SPLEEN Notable or abnormal, % (rat, in vivo, po, 4 mg/kg): 0% | SPLEEN Notable or abnormal, No Exam (rat, in vivo, po, 4 mg/kg): 0/10 | SPLEEN Within normal limits, % (rat, in vivo, po, 4 mg/kg): 100% | SPLEEN Within normal limits, No Exam (rat, in vivo, po, 4 mg/kg): 10/10 | STOMACH Notable or abnormal, % (rat, in vivo, po, 4 mg/kg): 0% | STOMACH Notable or abnormal, No Exam (rat, in vivo, po, 4 mg/kg): 0/10 | STOMACH Within normal limits, % (rat, in vivo, po, 4 mg/kg): 100% | STOMACH Within normal limits, No Exam (rat, in vivo, po, 4 mg/kg): 10/10 | HEART Notable or abnormal, % (rat, in vivo, po, 8 mg/kg/day): 0% | HEART Notable or abnormal, No Exam (rat, in vivo, po, 8 mg/kg/day): 0/10 | HEART Within normal limits, % (rat, in vivo, po, 8 mg/kg/day): 100% | HEART Within normal limits, No Exam (rat, in vivo, po, 8 mg/kg/day): 10/10 | INTESTINE, Large Notable or abnormal, % (rat, in vivo, po, 8 mg/kg/day): 0% | INTESTINE, Large Notable or abnormal, No Exam (rat, in vivo, po, 8 mg/kg/day): 0/10 | INTESTINE, Large Within normal limits, % (rat, in vivo, po, 8 mg/kg/day): 100% | INTESTINE, Large Within normal limits, No Exam (rat, in vivo, po, 8 mg/kg/day): 10/10 | INTESTINE, Small Enteritis, % (rat, in vivo, po, 8 mg/kg/day): 10% | INTESTINE, Small Enteritis, No Exam (rat, in vivo, po, 8 mg/kg/day): 1/10 | INTESTINE, Small Notable or abnormal, % (rat, in vivo, po, 8 mg/kg/day): 10% | INTESTINE, Small Notable or abnormal, No Exam (rat, in vivo, po, 8 mg/kg/day): 1/10 | INTESTINE, Small Within normal limits, % (rat, in vivo, po, 8 mg/kg/day): 90% | INTESTINE, Small Within normal limits, No Exam (rat, in vivo, po, 8 mg/kg/day): 9/10 | KIDNEY Edema, % (rat, in vivo, po, 8 mg/kg/day): 0% | KIDNEY Edema, No Exam (rat, in vivo, po, 8 mg/kg/day): 0/10 | KIDNEY Notable or abnormal, % (rat, in vivo, po, 8 mg/kg/day): 0% | KIDNEY Notable or abnormal, No Exam (rat, in vivo, po, 8 mg/kg/day): 0/10 | KIDNEY Within normal limits, % (rat, in vivo, po, 8 mg/kg/day): 100% | KIDNEY Within normal limits, No Exam (rat, in vivo, po, 8 mg/kg/day): 10/10 | LIVER Fattening, % (rat, in vivo, po, 8 mg/kg/day): 0% | LIVER Fattening, No Exam (rat, in vivo, po, 8 mg/kg/day): 0/10 | LIVER Infiltration, % (rat, in vivo, po, 8 mg/kg/day): 0% | LIVER Infiltration, No Exam (rat, in vivo, po, 8 mg/kg/day): 0/10 | LIVER Notable or abnormal, % (rat, in vivo, po, 8 mg/kg/day): 0% | LIVER Notable or abnormal, No Exam (rat, in vivo, po, 8 mg/kg/day): 0/10 | LIVER Within normal limits, % (rat, in vivo, po, 8 mg/kg/day): 100% | LIVER Within normal limits, No Exam (rat, in vivo, po, 8 mg/kg/day): 10/10 | LUNG Lymphocytic infiltration, % (rat, in vivo, po, 8 mg/kg/day): 0% | LUNG Lymphocytic infiltration, No Exam (rat, in vivo, po, 8 mg/kg/day): 0/10 | LUNG Notable or abnormal, % (rat, in vivo, po, 8 mg/kg/day): 0% | LUNG Notable or abnormal, No Exam (rat, in vivo, po, 8 mg/kg/day): 0/10 | LUNG Pulmonary edema, % (rat, in vivo, po, 8 mg/kg/day): 0% | LUNG Pulmonary edema, No Exam (rat, in vivo, po, 8 mg/kg/day): 0/10 | LUNG Within normal limits, % (rat, in vivo, po, 8 mg/kg/day): 100% | LUNG Within normal limits, No Exam (rat, in vivo, po, 8 mg/kg/day): 10/10 | PANCREAS Notable or abnormal, % (rat, in vivo, po, 8 mg/kg/day): 0% | PANCREAS Notable or abnormal, No Exam (rat, in vivo, po, 8 mg/kg/day): 0/10 | PANCREAS Within normal limits, % (rat, in vivo, po, 8 mg/kg/day): 100% | PANCREAS Within normal limits, No Exam (rat, in vivo, po, 8 mg/kg/day): 10/10 | SPLEEN Notable or abnormal, % (rat, in vivo, po, 8 mg/kg/day): 0% | SPLEEN Notable or abnormal, No Exam (rat, in vivo, po, 8 mg/kg/day): 0/10 | SPLEEN Within normal limits, % (rat, in vivo, po, 8 mg/kg/day): 100% | SPLEEN Within normal limits, No Exam (rat, in vivo, po, 8 mg/kg/day): 10/10 | STOMACH Notable or abnormal, % (rat, in vivo, po, 8 mg/kg/day): 0% | STOMACH Notable or abnormal, No Exam (rat, in vivo, po, 8 mg/kg/day): 0/10 | STOMACH Within normal limits, % (rat, in vivo, po, 8 mg/kg/day): 100% | STOMACH Within normal limits, No Exam (rat, in vivo, po, 8 mg/kg/day): 10/10 | histopathology overall: toxicity to healthy tissues / organ damage (rats, oral 0.125 mg/kg/day to 8 mg/kg/day, 32 days): no significant organ damage; also recorded: no significant toxicity to healthy tissues
